Laboratory results as given in patent US20060258685A1, “Substituted pyrazolopyrimidines, methods for the production thereof, use of the same for controlling pathogenic fungi, and agents containing said compounds” (priority 2003, published 2006).

Test system: Sphaerotheca fuliginea
Test: Activity against mildew on cucumber leaves caused by Sphaerotheca fuliginea, protective application
Type: in vivo
Settings: 250 ppm active compound, sprayed to runoff, cucumber seedlings, assessed after 7 days, untreated plants 90% infected
Procedure: The active compounds were separately prepared as a stock solution of 0.25% by weight of active compound in acetone or DMSO. 1% by weight of emulsifier Uniperol® EL (wetting agent having emulsifying and dispersing action based on ethoxylated alkylphenols) was added to this solution, and the solution was diluted with water to the desired concentration. Leaves of potted cucumber seedlings of the cultivar “Chinese snake” were, at the cotyledon stage, sprayed to runoff point with an aqueous suspension having the concentration of active compound stated below. 20 hours after the spray coating had dried on, the plants were inoculated with an aqueous spore suspension of mildew of cucumber (Sphaerotheca fuliginea). The plants were then cultivated in a greenhouse at temperatures between 20 and 24° C. and 60 to 80% relative atmospheric humidity for 7 days. The extent of the mildew development was then determined visually in % infection of the cotyledon area.

## CC1CCN(c2c(-c3c(F)cc(F)cc3F)c(Cl)nc3c(Cl)cnn23)CC1 [III-1, 3,5-Dichloro-7-(4-methylpiperidin-1-yl)-6-(2,4,6-trifluorophenyl)-pyrazolo[1,5-a]pyrimidine]
  extent of the mildew development, determined visually in % infection of the cotyledon area: no infection
